Measured values: a melting point compilation (Tetko et al.; mined from patent text by program, amines drawn as free bases though some values may be those of a salt)

| Structure (SMILES) | melting point |
| --- | --- |
| Cn1nc(C#N)c(Nc2ccc(Cl)cc2[N+](=O)[O-])n1 | 166 to 168 °C |
| C=CCO[C@H]1[C@@H](OCc2ccccc2)[C@@H](OCc2ccccc2)[C@H](OCc2ccccc2)[C@@H](OCc2ccccc2)[C@]1(O)CC=C (racemic) | 97.5 °C |
| COc1cc(/C(C#N)=C\c2ccc(Cl)c(N)c2)cc(OC)c1OC | 150 to 151 °C |
| COc1ccc(C2=NN(C3CCN(C(=O)c4c(Cl)cc(Cl)cc4Cl)CC3)C(=O)CC2)cc1OC | 156 to 159 °C |
| COCCOC(=O)NC(=O)CCCCCN=C=O | 77 °C |
| Cc1cc2ncnn2nc1OCC(C)(C)CCCS(N)(=O)=O | 171 to 172 °C |
| COc1ccc(-c2ocnc2-c2cc(OC)c(OC(F)(F)F)c(OC)c2)cc1N | 168 to 170 °C |
| Cc1cc(C)cc(C(=O)N2CCN(C(=O)CBr)C(c3ccc(Cl)c(Cl)c3)C2)c1 (racemic) | 68 to 71 °C |
| Cc1cc(-n2ncnn2)cc2ccc(=O)[nH]c12 | 264 to 266 °C |
| CC1(C)OC(=C(C#N)C#N)C(C#N)=C1c1ccc(Br)cc1 | 235 °C |
| CCOc1ncc(C(C)=O)cc1C(=O)Nc1c(C(N)=O)nn(C2CCN(C(=O)OC(C)(C)C)CC2)c1CC | 197 to 202 °C |
| CCCCN(C(C)=O)C1NC(=O)N(c2cccc(C(F)(F)F)c2)C(=O)N1 | 146 to 148 °C |
| Cc1sc2c(Br)c3ccccc3c(-c3cc(Br)c(O)c(C4CCCC4)c3)c2c1C | 190 to 191 °C |
| O=S1(=O)CCC(=S)Nc2ccc(Cl)cc2C1c1ccccc1F (centres undefined) | 226 °C |
| COc1cc(CC(C)=O)c([N+](=O)[O-])cc1Cl | 114 to 115 °C |
| Cc1cc(Cl)cc(Cl)c1N1CCn2c1nc1c(Cl)ccc(C(O)(C3CC3)C3CC3)c12 | 193 to 196 °C |

| Structure (SMILES) | melting point |
| --- | --- |
| Fc1ccc(C(OCCN2CCN(C(c3ccc(F)cc3)c3ccc(F)cc3)CC2)c2ccc(F)cc2)cc1 | 87 to 88 °C |
| NC(=O)CNC(=O)COC[C@@H]1CCCN1C(=O)OCc1ccccc1 | 110 to 111 °C |
| C[C@](O)(COc1ccc(F)cc1)C(=O)Nc1ccc(C#N)c(C(F)(F)F)c1 | 139 to 140 °C |
| CCOC(=O)C1=CCC2(CC1S(=O)(=O)Nc1ccc(F)cc1Cl)OCCO2 (centres undefined) | 120 to 122 °C |
| COc1c2c(c(OC)c(OC)c1OC)CCC(CCn1ccccc1=O)CC2 | 84 to 87 °C |
| O=C(CCCCC1(C(=O)O)CCCC1)CCCCC1(C(=O)O)CCCC1 | 99 to 103 °C |
| NC(=O)c1c(-c2cnccn2)ssc1=S | 267 °C |
| Cc1ccc(S(=O)(=O)OC[C@H]2CC[C@H](C#N)CC2)cc1 | 84 to 85 °C |
| CCCN(CCC)C1Cc2cc3c(cc2C1)C(=O)N(Cc1cccnc1)C3=O | 141 to 146 °C |
| O=C(O)CCCn1c(=O)c2ccccc2n(CCCCN2CCC(OC(c3ccccc3)c3ccccc3)CC2)c1=O | 132 to 133 °C |
| COc1cc2ncnc(N3CCN(C(=O)NCc4cccnc4)CC3)c2cc1OC | 188 to 189 °C |
| CC(C)c1cccc(F)c1NC(=S)NN | 122 to 124 °C |
| CC(=O)c1cc2c(s1)S(=O)CCN(CCCCN1CCN(c3ncccn3)CC1)C2=O (centres undefined) | 103 to 106 °C |
| N=C(N)NC[C@H]1CC[C@H](C(=O)O)CC1 | 206 to 208 °C |
| O=c1c2cc(-c3nnn[nH]3)ccc2oc2ncccc12 | > 300 °C |

Continued, values first:

| melting point | Structure (SMILES) |
| --- | --- |
| 172 °C | CS(=O)(=O)C(=C1CN(C(c2ccccc2)c2ccccc2)C1)c1cc(F)cc(F)c1 |
| 102 to 106 °C | CCCC[C@H](NC(=O)[C@H](CC(C)C)NC(=O)c1ccccc1C(F)(F)F)C(=O)CSCc1ccco1 |
| 250 °C | NC(=O)C1c2ccccc2-c2ccccc21 |
| 160 to 164 °C | Cc1nc2cc(Oc3cc(-c4ccc(C(F)(F)F)cc4)ccn3)ccc2s1 |
| 163 to 165 °C | Oc1cnccc1CCCOc1cccnc1Oc1ccccc1 |
| 118 to 120 °C | CCOC(=O)c1cnc2n(CC)c3ccccc3n2c1=O |
| 196 to 198 °C | COc1ccccc1NC(=O)c1nc2c(s1)CN(C)CC2 |
| 81 °C | CCCCc1oc2ccc([N+](=O)[O-])cc2c1C(=O)c1ccc(OCCBr)cc1 |
| 111 to 113 °C | COC(=O)[C@H](Cc1cc(Cl)c(OCCc2coc(-c3cccc(OCc4ccccc4)c3)n2)c(Cl)c1)NC(=O)C(F)(F)F |
| 151 °C | COc1ccc(C2=C(C#N)c3ccc(OC)cc3CC2)cc1 |
| 88 to 89 °C | CCOC(=O)CN=c1sc2ccccc2s1 |
| 92 to 95 °C | CNC(=O)C(Cc1ccc(OC)cc1)NC(=O)C(CC(C)C)C(CC(=O)O)SC(C)=O (centres undefined) |
| 123 to 125 °C | CCCC(=O)c1cnc2c(OC)cccc2c1Nc1ccc(OC(=O)C(C)C)cc1C |
| 150 °C | Cn1c(-c2cccc(-c3cc4ccccc4n3C)c2)cc2ccccc21 |
| 105 to 107 °C | COC(=O)C(CSCc1ccc(OC)cc1)NC(=O)NCCCCC1CCSS1 (centres undefined) |
| 83 to 84 °C | Cc1nnc(-c2ccc3occ(-c4ccccc4Cl)c3c2)o1 |
| 134 to 136 °C | CC(C)(C)OC(=O)Nc1ccc(C#Cc2ccc(F)cc2F)cc1[N+](=O)[O-] |
| 71 to 72 °C | c1ccc2c(c1)C[C@@H]1CCc3ccccc3[C@@H]1O2 (relative stereo) |
| 105 to 108 °C | c1ccc(CCn2cnc3cnc4ccccc4c32)cc1 |

| melting point | Structure (SMILES) |
| --- | --- |
| 202 °C | O=C(Nc1ccc2ccc(Cl)nc2n1)c1cccc(F)c1 |
| 125 to 134 °C | c1coc(CNCc2ccc(-c3cc4ncnc(Nc5ccc6[nH]ccc6c5)c4s3)cc2)c1 |
| 188 to 189 °C | O=C1CCN(Cc2ccc3ccccc3n2)CC1C(c1ccc(F)cc1)c1ccc(F)cc1 (centres undefined) |
| 146 to 148 °C | COc1cccc(P(=O)(c2ccc(C)cc2)c2ccc(C)cc2)c1I |
| 257 to 260 °C | COc1ccc(Cl)cc1-c1c(Sc2ccncc2)c(=O)[nH]c2ccc(C(F)(F)F)cc12 |
| 121 to 122 °C | Cc1cc(OC(F)(F)C(F)F)ccc1N1C(=O)c2cccc(Cl)c2C1=O |
| 116 to 118 °C | O=C1c2ccc(O)cc2C(=O)N1c1ccccc1 |
| 140 to 148 °C | Cc1cc(-c2cccc(NC(=O)N[C@@H]3c4cc(C#N)ccc4OC(C)(C)[C@H]3O)c2)on1 |
| 227 to 235 °C | O=C(Cc1ccc2ccccc2c1)Nc1cc(-c2ccncc2)[nH]n1 |
| 149 to 150 °C | CC(=O)Nc1ccc(OC(C)(C)c2nc3ccccc3s2)cc1 |
| 83 to 85 °C | Cn1nc(-c2ccccc2)nc1-c1ccccc1CBr |
| 100 to 101 °C | COc1ccc(CCNC(=O)OC(C)(C)C)cc1O |
| 290 °C | CN1Sc2ccccc2C(=O)C1C(=O)Nc1coc2ccccc2c1=O (centres undefined) |
| 145 °C | Cc1cccc(NC(=O)NCC(=O)N(CC(=O)OC(C)(C)C)c2ccccc2C(=O)N(C)c2ccccc2)c1 |
| 111 to 113 °C | O=C(Nc1ccccc1)N(Cc1ccc(Cl)cc1)C1CC2CCC1C2 (centres undefined) |
| 69 to 70 °C | O=C(c1ccccc1)c1cccc(OCCn2ccnc(N3CCNCC3)c2=O)c1 |
| 263 °C | Cc1nc(NC(=O)c2nnn(Cc3ccc(Cl)c(Cl)c3)c2C)sc1C(=O)O |
| 210 to 211 °C | Cc1ccccc1Sc1c(O)cc(-c2ccccc2)oc1=O |
| 278 to 284 °C | COc1cccc2c1CN(c1c(F)cc3c(=O)c(C(=O)O)cn(-c4ccc(F)cc4)c3c1F)C2 |
